According to patent US20260265265A1, “NOVEL BENZIMIDAZOLONE DERIVATIVE COMPOUND AS AUTOTAXIN INHIBITOR” (LG CHEM, LTD., priority 2023, published 2026):

Target: T1, Recombinant Human ENPP-2/Autotaxin (Homo sapiens, UniProt Q13822)
T1 construct: purchased R&D systems 5255-EN
Assay: LysoPLD activity measurement (autotaxin enzyme inhibition, choline release, TOOS reagent)
Format: biochemical
Settings: LysoPLD inhibitory activity; substrate 14:0 LysoPC; absorbance at 555 nm
Procedure, shortened: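 Enzyme and compound were preincubated for 30 min before adding 14:0 LysoPC substrate, diluted to 300 μM, for 90 minutes at 37° C. The choline product was quantified colorimetrically with TOOS reagent. Wells without compound held 1% DMSO.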

Row | SMILES | IC50
1 | O=C(O)c1cccc(Cn2c(=O)n(-c3ccccc3)c3cc(Cl)ccc32)c1F [Example 33, 3-((5-chloro-2-oxo-3-phenyl-2,3-dihydro-1H-benzo[d]imidazol-1-yl)methyl)-2-fluorobenzoic acid] | 100 to 1000 nM
2 | O=C(O)c1cccc(C2(n3c(=O)n(-c4ccc(C(=O)N5CC6(CCOCC6)C5)cc4)c4cc(Cl)ccc43)CC2)c1 [Example 93, 3-(1-(3-(4-(7-oxa-2-azaspiro[3.5]nonane-2-carbonyl)phenyl)-5-chloro-2-oxo-2,3-dihydro-1H-benzo[d]imidazol-1-yl)cyclopropyl)benzoic acid] | < 10 nM
3 | CN(C)C(=O)c1ccc(-n2c(=O)n(C3(c4cccc(C(=O)O)c4F)CC3)c3ccc(Cl)cc32)cc1 [Example 72, 3-(1-(5-chloro-3-(4-(dimethylcarbamoyl)phenyl)-2-oxo-2,3-dihydro-1H-benzo[d]imidazol-1-yl)cyclopropyl)-2-fluorobenzoic acid] | < 10 nM
4 | O=C(O)c1cccc(Cn2c(=O)n(-c3cnn(CC4CC4)c3)c3cc(Cl)ccc32)c1 [Example 90, 3-((5-chloro-3-(1-cyclopropylmethyl-1H-pyrazol-4-yl)-2-oxo-2,3-dihydro-1H-benzo[d]imidazol-1-yl)methyl)benzoic acid] | 100 to 1000 nM
5 | CS(=O)(=O)Nc1ccc(-n2c(=O)n(Cc3cccc(C(=O)O)c3F)c3ccc(Cl)cc32)cc1 [Example 41, 3-((5-chloro-3-(4-(methylsulfonamido)phenyl)-2-oxo-2,3-dihydro-1H-benzo[d]imidazol-1-yl)methyl)-2-fluorobenzoic acid] | 10 to 100 nM
6 | O=C(O)c1cc(Cn2c(=O)n(-c3ccc(N4CCOCC4)cc3)c3c(F)c(Cl)ccc32)ccc1F [Example 48, 5-((5-chloro-4-fluoro-3-(4-morpholinophenyl)-2-oxo-2,3-dihydro-1H-benzo[d]imidazol-1-yl)methyl)-2-fluorobenzoic acid] | 10 to 100 nM
7 | O=C(O)c1cccc(Cn2c(=O)n(-c3ccc(C4CCOCC4)cc3)c3cc(Cl)ccc32)c1 [Example 103, 3-((5-chloro-2-oxo-3-(4-(tetrahydro-2H-pyran-4-yl)phenyl)-2,3-dihydro-1H-benzo[d]imidazol-1-yl)methyl)benzoic acid] | 10 to 100 nM
8 | O=C(O)c1cccc(C2(n3c(=O)n(-c4ccc(C(=O)N5CC6(COC6)C5)cc4)c4cc(Cl)ccc43)CC2)c1 [Example 137, 3-(1-(3-(4-(2-oxa-6-azaspiro[3.3]heptane-6-carbonyl)phenyl)-5-chloro-2-oxo-2,3-dihydro-1H-benzo[d]imidazol-1-yl)cyclopropyl)benzoic acid] | < 10 nM
9 | CN(C)c1ccc(-n2c(=O)n(C3(c4cccc(C(=O)O)c4)CC3)c3ccc(Cl)cc32)cc1 [Example 69, 3-(1-(5-chloro-3-(4-(dimethylamino)phenyl)-2-oxo-2,3-dihydro-1H-benzo[d]imidazol-1-yl)cyclopropyl)benzoic acid] | < 10 nM
10 | O=C(O)c1cccc(C2(n3c(=O)n(-c4ccc(C(=O)N5CCCCC5)cc4)c4cc(Cl)ccc43)CC2)c1F [Example 68, 3-(1-(5-chloro-2-oxo-3-(4-(piperidine-1-carbonyl)phenyl)-2,3-dihydro-1H-benzo[d]imidazol-1-yl)cyclopropyl)-2-fluorobenzoic acid] | < 10 nM
11 | CN1CCN(c2ccc(-n3c(=O)n(Cc4cccc(C(=O)O)c4)c4ccc(Cl)cc43)cn2)CC1 [Example 81, 3-((5-chloro-3-(6-(4-methylpiperazin-1-yl)pyridin-3-yl)-2-oxo-2,3-dihydro-1H-benzo[d]imidazol-1-yl)methyl)benzoic acid] | 100 to 1000 nM
12 | CN1Cc2cc(-n3c(=O)n(Cc4cccc(C(=O)O)c4F)c4ccc(Cl)cc43)ccc2C1=O [Example 117, 3-((5-chloro-3-(2-methyl-1-oxoisoindolin-5-yl)-2-oxo-2,3-dihydro-1H-benzo[d]imidazol-1-yl)methyl)-2-fluorobenzoic acid] | 10 to 100 nM
13 | O=C(O)c1cccc(Cn2c(=O)n(-c3ccc4c(c3)OCO4)c3cc(Cl)ccc32)c1 [Example 9, 3-((3-(benzo[d][1,3]dioxol-5-yl)-5-chloro-2-oxo-2,3-dihydro-1H-benzo[d]imidazol-1-yl)methyl)benzoic acid] | 100 to 1000 nM
14 | O=C(O)c1cccc(C2(n3c(=O)n(-c4ccc(N5CC6(CCOCC6)C5)cc4)c4cc(Cl)ccc43)CC2)c1 [Example 148, 3-(1-(3-(4-(7-oxa-2-azaspiro[3.5]nonane-2-yl)phenyl)-5-chloro-2-oxo-2,3-dihydro-1H-benzo[d]imidazol-1-yl)cyclopropyl)benzoic acid] | < 10 nM
15 | CN(C)c1ccc(-n2c(=O)n(Cc3cccc(C(=O)O)c3)c3ccc(Cl)cc32)cc1 [Example 10, 3-((5-chloro-3-(4-(dimethylamino)phenyl)-2-oxo-2,3-dihydro-1H-benzo[d]imidazol-1-yl)methyl)benzoic acid] | 10 to 100 nM
16 | CC(C)(O)c1ccc(-n2c(=O)n(Cc3cccc(C(=O)O)c3)c3ccc(Cl)cc32)cc1 [Example 18, 3-((5-chloro-3-(4-(2-hydroxypropan-2-yl)phenyl)-2-oxo-2,3-dihydro-1H-benzo[d]imidazol-1-yl)methyl)benzoic acid] | 10 to 100 nM
17 | CN1CCN(C(=O)c2ccc(-n3c(=O)n(Cc4cccc(C(=O)O)c4)c4ccc(Cl)cc43)cc2)CC1 [Example 60, 3-((5-chloro-3-(4-(4-methylpiperazine-1-carbonyl)phenyl)-2-oxo-2,3-dihydro-1H-benzo[d]imidazol-1-yl)methyl)benzoic acid] | < 10 nM
18 | O=C(O)c1cccc(C2(n3c(=O)n(-c4ccc(C5CCOCC5)cc4)c4cc(Cl)ccc43)CCC2)c1 [Example 155, 3-(1-(5-chloro-2-oxo-3-(4-(tetrahydro-2H-pyran-4-yl)phenyl)-2,3-dihydro-1H-benzo[d]imidazol-1-yl)cyclobutyl)benzoic acid] | 10 to 100 nM

Continued, values first:

Row | IC50 | SMILES
19 | < 10 nM | O=C(O)c1cccc(C2(n3c(=O)n(-c4ccc(N5C(=O)OCC56CC6)cc4)c4cc(Cl)ccc43)CC2)c1 [Example 243, 3-(1-(5-chloro-2-oxo-3-(4-(5-oxo-6-oxa-4-azaspiro[2.4]heptan-4-yl)phenyl)-2,3-dihydro-1H-benzo[d]imidazol-1-yl)cyclopropyl)benzoic acid]
20 | 10 to 100 nM | CN(C)C(=O)Cc1ccc(-n2c(=O)n(C3(c4cccc(C(=O)O)c4)CC3)c3ncc(Cl)cc32)cc1 [Example 226, 3-(1-(6-chloro-1-(4-(2-(dimethylamino)-2-oxoethyl)phenyl)-2-oxo-1,2-dihydro-3H-imidazo[4,5-b]pyridin-3-yl)cyclopropyl)benzoic acid]
21 | < 10 nM | CCC(=O)N1CCC(c2ccc(-n3c(=O)n(C4(c5cccc(C(=O)O)c5)CC4)c4ccc(Cl)cc43)cc2)CC1 [Example 234, 3-(1-(5-chloro-2-oxo-3-(4-(1-propionylpiperidin-4-yl)phenyl)-2,3-dihydro-1H-benzo[d]imidazol-1-yl)cyclopropyl)benzoic acid]
22 | < 10 nM | CN(C)C(=O)c1ccc(-n2c(=O)n(C3(c4cc(F)cc(C(=O)O)c4)CC3)c3ncc(Cl)cc32)cc1 [Example 272, 3-(1-(6-chloro-1-(4-(dimethylcarbamoyl)phenyl)-2-oxo-1,2-dihydro-3H-imidazo[4,5-b]pyridin-3-yl)cyclopropyl)-5-fluorobenzoic acid]
23 | < 10 nM | CN(C)C(=O)Cc1ccc(-n2c(=O)n(C3(c4cc(F)cc(C(=O)O)c4)CC3)c3ccc(Cl)cc32)cc1 [Example 189, 3-(1-(5-chloro-3-(4-(2-(dimethylamino)-2-oxoethyl)phenyl)-2-oxo-2,3-dihydro-1H-benzo[d]imidazol-1-yl)cyclopropyl)-5-fluorobenzoic acid]
24 | < 10 nM | O=C(O)c1cccc(C2(n3c(=O)n(-c4ccc(N5CC6CC5CO6)cc4)c4cc(Cl)ccc43)CC2)c1 (stereo not shown) [Example 181, 3-(1-(3-(4-(2-oxa-5-azabicyclo[2.2.1]heptan-5-yl)phenyl)-5-chloro-2-oxo-2,3-dihydro-1H-benzo[d]imidazol-1-yl)cyclopropyl)benzoic acid]
25 | < 10 nM | CN1Cc2cc(-n3c(=O)n(C4(c5cccc(C(=O)O)c5)CC4)c4ccc(Cl)cc43)ccc2C1=O [Example 245, 3-(1-(5-chloro-3-(2-methyl-1-oxoisoindolin-5-yl)-2-oxo-2,3-dihydro-1H-benzo[d]imidazol-1-yl)cyclopropyl)benzoic acid]
26 | < 10 nM | O=C(O)c1cc(F)cc(C2(n3c(=O)n(-c4ccc(C5(O)CCC5)cc4)c4cc(Cl)ccc43)CC2)c1 [Example 257, 3-(1-(5-chloro-3-(4-(1-hydroxycyclobutyl)phenyl)-2-oxo-2,3-dihydro-1H-benzo[d]imidazol-1-yl)cyclopropyl)-5-fluorobenzoic acid]
27 | < 10 nM | CCCn1cc(-c2ccc(-n3c(=O)n(C4(c5cccc(C(=O)O)c5)CC4)c4ncc(Cl)cc43)cc2)cn1 [Example 270, 3-(1-(6-chloro-2-oxo-1-(4-(1-propyl-1H-pyrazol-4-yl)phenyl)-1,2-dihydro-3H-imidazo[4,5-b]pyridin-3-yl)cyclopropyl)benzoic acid]
28 | < 10 nM | O=C(O)c1cccc(C2(n3c(=O)n(-c4ccc(S(=O)(=O)N5CCCCC5)cc4)c4cc(Cl)ccc43)CC2)c1 [Example 214]
29 | < 10 nM | CN(C)c1ccc(-n2c(=O)n(C3(c4cccc(C(=O)O)c4)CC3)c3ncc(Cl)cc32)cc1 [Example 221, 3-(1-(6-chloro-1-(4-(dimethylamino)phenyl)-2-oxo-1,2-dihydro-3H-imidazo[4,5-b]pyridin-3-yl)cyclopropyl)benzoic acid]
30 | 10 to 100 nM | O=C(O)c1cccc(C2(n3c(=O)n(-c4ccc(-c5nnc(C6CCCCCC6)o5)cc4)c4cc(Cl)ccc43)CC2)c1 [Example 264, 3-(1-(5-chloro-3-(4-(5-cycloheptyl-1,3,4-oxadiazol-2-yl)phenyl)-2-oxo-2,3-dihydro-1H-benzo[d]imidazol-1-yl)cyclopropyl)benzoic acid]
31 | 10 to 100 nM | O=C(O)c1c(F)ccc(Cn2c(=O)n(-c3ccc(N4CCOCC4)cc3)c3cc(Cl)ccc32)c1F [Example 205, 3-((5-chloro-3-(4-morpholinophenyl)-2-oxo-2,3-dihydro-1H-benzo[d]imidazol-1-yl)methyl)-2,6-difluorobenzoic acid]
